This is an account of results in patent US20180360845A1, “MUSCARINIC COMBINATION OF A SELECTIVE M2-ANTAGONIST AND A PERIPHERAL NON-SELECTIVE ANTAGONIST FOR TREATING HYPOCHOLINERGIC DISORDERS” (CHASE PHARMACEUTICALS CORPORATION, priority 2015, published 2018).

Data set [1] can be described thus: Dose-response to otenzepad in a mouse model of diarrhea (fecal pellet count). Format: in vivo, Male Swiss mice. Conditions: increasing doses of otenzepad, T0 to T+4 h. An excerpt:
Male Swiss mice (4-6 weeks old), N=10 per treatment group were used, and treated with either vehicle (vehicle group) or increasing doses of otenzepad, a representative M2-antagonist. Mice were randomly assigned to one of two experimental groups (vehicle; or increasing doses of otenzepad). Each animal was identified by its group name, cage number, series (day) of experiment, and number (1 to 10) written with permanent ink on the tail. Mice were placed individually in cages without any bedding materials. During the experiment the number of fecal pellets was counted at different time-points, starting one hour before the time of the administration of the test compound (T0), as outlined below:
(§1) T−1 h to T0: counting of the accumulated fecal pellets excreted.
T0: administration of the test compound.
T0 to T+2 h: counting of the accumulated fecal pellets excreted.
T+2 h to T+4 h: counting of the accumulated fecal pellets excreted.
The total number of fecal pellets for each mouse was counted over time. An analysis of variance (ANOVA) was performed on the results. Fisher's Protected Least Significant Difference was used for pairwise comparisons; p values≤0.05 were considered significant. Grubbs' test (http://www.graphpad.com/quickcalcs/Grubbsl.cfm) was used to detect outliers for each parameter in each experimental group.

Data set [2] can be described thus: T-maze continuous alternation task (T-CAT) with solifenacin and otenzepad. It is filed as in vivo, Male Swiss mice. The text has this:
Evaluation of Cognition with Solifenacin and Otenzepad in the T-Maze Alternation Task in Mice The T-maze continuous alternation task (T-CAT) is useful as model for studying compounds with cognitive enhancing properties. The T-maze consists of 2 choice arms and 1 start arm mounted to a square centre. Manual doors are provided to close specific arms during the force choice alternation task. Male Swiss mice (4-6 weeks old), N=10 per treatment group were used, and were pre-treated with: • Solifenacin at the dose that blocked fecal pellet excretion in Experiment 2 of Example 1. […] Mice were randomly assigned to one of the different experimental treatment groups. Each animal was identified by its group name, cage number, series (day) of experiment, and number (1 to 10) written with permanent ink on the tail. The T-maze apparatus is made of gray Plexiglas with a main stem (55 cm long×10 cm wide×20 cm high) and two arms (30 cm long×10 cm wide×20 cm high) positioned at 90 degree angle relative to the main stem. […] The percentage of alternation over the 14 free-choice trials was determined for each mouse and was used as an index of working memory performance. […] The drug-induced improvement of memory was calculated by setting the respective response of the saline/vehicle as 100% and that of the test group as 0% reversion. […]

For data set [3] the following is noted: cited from earlier work.
The conditions of data set [4]: aged memory impaired rats; cited from earlier work.
The conditions of data set [5]: young animals; cited from earlier work.
The conditions of data set [6]: traumatic brain-injured rats; cited from earlier work.
The conditions of data set [7]: clinical study; cited from earlier work.
For data set [8] the following is noted: cited from earlier work. The source holds these as a separate data set.
The conditions of data set [9]: cited from earlier work. The source holds these as a separate data set.
The conditions of data set [10]: in vivo; cited from earlier work.
For data set [11] the following is noted: in vivo; cited from earlier work. This is another data set of the same source.
The conditions of data set [12]: bilateral intrastriatal infusion, female rats; cited from earlier work.
The conditions of data set [13]: transdermal, rats, [14C] label; cited from earlier work.
A short description of data set [14]: Antagonism of otenzepad-induced diarrhea in mice by solifenacin. It is filed as in vivo, Male Swiss mice. Conditions: solifenacin 2 to 40 mg/kg given 30 min before otenzepad. The procedure: Male Swiss mice (4-6 weeks old), N=10 per treatment group were used. Animals were pretreated with solifenacin (a representative peripheral muscarinic receptor antagonist) or vehicle; 30 minutes later animals were treated with otenzepad at a dose that caused diarrhea (as determined in Experiment 1). The dose of solifenacin ordinarily ranged from 2 to 40 mg/kg. Mice were placed individually in cages without any bedding materials. During the experiment the number of fecal pellets was counted at different time-points as outlined below:
as §1
T0: administration of solifenacin.
T30 min: administration of vehicle or otenzepad.
T 30 min to T 2.5 h: counting of accumulated fecal pellets excreted.
T+2.5 h to T+4.5 h: counting of accumulated fecal pellets excreted.
The total number of fecal pellets for each mouse was counted over time. An analysis of variance (ANOVA) was performed on the results. Fisher's Protected Least Significant Difference was used for pairwise comparisons. The p value≤0.05 were considered significant. Grubbs' test (http//www at graphpad.com/quickcalcs/Grubbs.cfm) was used to detect outliers for each parameter in each experimental group.

The conditions of data set [15]: absorbed amount; cited from earlier work.

Take `CCN(CC)CC1CCCCN1CC(=O)N1c2ccccc2C(=O)Nc2cccnc21` (racemic) [otenzepad, (±)11-[[2-[(diethylamino)methyl]-1-piperidinyl]acetyl]-5,11-dihydro-6H-pyrido[2,3-b][1,4]benzodiazepin-6-one]: the “diarrhea (number of fecal pellets)” value in data set [1] is recorded as “dose-dependently causes diarrhea”. For the same compound, the “cognition (percentage of alternation, working memory)” value in data set [2] (two doses of otenzepad, in the presence of solifenacin) was “improves cognition in a dose-dependent manner”. The “subjects with mild and tolerable adverse events (palpitations, dry mouth, headache)” value in [3] (270 to 810 mg/day) is recorded as “about 20%”. For the same compound, the muscarinic adverse effects entry in data set [3] (single oral doses of 120, 240 and 480 mg) was “does not induce manifest muscarinic adverse effects”.

On to `CCCC(C)(C)C(=O)N(CC)CCCC1CCN(CC(=O)N2c3ccc(Cl)cc3C(=O)Nc3cccnc32)CC1` [BIBN-99, 5,11-dihydro-8-chloro-11-[[4-[3-[(2,2-dimethyl-1-oxopentyl)ethylamino]propyl]-1-piperidinyl]acetyl]-6H-pyrido[2,3-b][1,4]benzodiazepin-6-one], for which the “impaired ACh release and cognitive deficits” value in [4] is reported as “reverses, in a dose-dependent manner”. The scopolamine-induced amnesia entry in [5] is “improves scopolamine-induced amnesia”. The cognitive deficits result in data set [6] is “attenuate cognitive deficits”.

Take `CCn1nnc(C2=CCCN(C)C2)n1` [Lu 25-109, 5-(2-ethyl-2H-tetrazol-5-yl)-1-methyl-1,2,3,6-tetrahydropyridine]: the “fixed-dose Maximum Tolerated Dose” value in [7] is recorded as 150 mg t.i.d. Further, the side effects entry in data set [8] (anorexia, nausea, diarrhea, increased sweating, increased with dose) is reported as “prominent cholinergic side effects”. The “primary and secondary variables versus placebo (antidementia efficacy)” value in data set [8] (three doses, 6 months, 496 patients with probable AD) is on record as “no significant differences”.

`COc1ccc([S+]([O-])c2ccc(C(C#N)N3CCN(C4CCCCC4)CC3)cc2)cc1` (stereo not drawn) [SCH 57790, 4-cyclohexyl-alpha-[4[[4-methoxyphenyl]sulphinyl]-phenyl]-1-piperazineacetonitrile]: the brain acetylcholine release entry in data set [9] (in vivo) is “dose-related increase”. Moreover, the cognitive performance result in data set [9] (rodents and nonhuman primates) is recorded as “enhances cognitive performance”.

As to `CCCS(=O)(=O)N1CCC(C)(N2CCN([C@@H](C)c3ccc(S(=O)(=O)c4ccc5c(c4)OCO5)cc3)[C@H](C)C2)CC1` [SCH 72788, 4-[4-[1(S)-[4-[(1,3-benzodioxol-5-yl)sulfonyl]phenyl]ethyl]-3(R)-methyl-1-piperazinyl]-4-methyl-1-(propylsulfonyl)piperidine], in data set [10], the ACh release result is reported as “increases ACh release” and the “activity in a rodent model of cognition” value was “active”.

Turning to `Cc1cccc(C(=O)N2CCC(N3CCC(C4(c5ccc(S(=O)(=O)c6cccc(Cl)c6)cc5)OCCO4)CC3)CC2)c1N` [SCH-217443, 1′-(2-amino-3-methylbenzoyl)-4-[[[(3-chlorophenyl)sulfonyl]phenyl]ethylenedioxymethyl]-1,4′-bipiperidine], the “activity in a rat model of cognition” value in data set [11] is on record as “shows activity”.

On to `COc1ccccc1CNCCCCCCNCCCCCCCCNCCCCCCNCc1ccccc1OC` [methoctramine, N,N′-bis[6-[(2-methoxybenzyl)amino]hexyl]-1,8-octanediamine], for which the procedural memory performance entry in [12] is recorded as “improves procedural memory performance”.

Consider `CCN(CC)CC#CCOC(=O)C(O)(c1ccccc1)C1CCCCC1` (centres unmarked) [oxybutynin, 4-diethylaminobut-2-ynyl 2-cyclohexyl-2-hydroxy-2-phenylethanoate], for which, in data set [13], the brain penetration entry is reported as “presence of radiolabel in the brain”.

As to `O=C(O[C@H]1CN2CCC1CC2)N1CCc2ccccc2[C@@H]1c1ccccc1` [solifenacin, (1S)-(3R)-1-azabicyclo[2.2.2]oct-3-yl 3,4-dihydro-1-phenyl-2(1H)-iso-quinolinecarboxylate], the “antagonism of otenzepad-induced diarrhea (fecal pellets)” value in data set [14] was “dose-dependently antagonized the diarrhea”. The “effect of solifenacin on cognitive response to otenzepad (percentage of alternation)” value in data set [2] (solifenacin pre-treatment 30 min before otenzepad) is reported as “did not affect cognitive response to otenzepad”.

Turning to `O=C(O[C@H]1C[C@H]2CC[C@@H](C1)[N+]21CCCC1)C(O)(c1ccccc1)c1ccccc1` [trospium chloride, azoniaspiro[33-benziloyloxy-(1α,5α)-nortropane-8,1′-pyrrolidine] (trospium) chloride], in data set [15], the average plasma half-life entry is on record as “about 18 hours”.
